From patent US11208404B2 (PERENNA PHARMACEUTICALS, INC., priority 2017, dated 2021)
Like-named read-outs stand apart in the source and are kept apart here.

How the values were obtained:
ALCAT1 [1] = biological target: T1, ALCAT1 (Homo sapiens (Human), UniProt Q6UWP7); assay: Cell-based assay for ALCAT inhibitor compounds (H9C2 cells); details: H9c2, 3 μM compound; H9C2 vector cell line and H9C2 with stable overexpression of ALCAT1
Description: The assay was performed on the H9C2 vector cell line and H9C2 with stable overexpression of ALCAT1. Materials used in the protocol were CoA, LPG, compounds, chloroform, methanol, 0.9% KCl, 6-well-plates, 1.5 mL tubes, DMEM, FBS, P/S and PBS.
Cells were seeded in 6-well-plates, 8×10^5 cells/well, and cultured at 37° C. in 5% CO2 overnight.
Cells were washed once with ice-cold PBS, collected in ice-cold PBS and centrifuged at 5000 rpm for 5 min at 4° C. 200 μL of chloroform: methanol (2:1) was added to the cell pellet, which was vortexed to suspend the cells and incubated at RT for 1 hr.
40 μL of 0.9% KCl was added and the sample was vortexed before centrifugation at 10000 rpm for 5 min at RT. The aqueous phase (upper layer) was discarded and the organic phase (lower layer) was loaded to a TLC plate (10 cm×20 cm), 40 μL/sample.
The plates were developed in chloroform: methanol: water (65:25:4) for about 30 min and scanned using a Typhoon Scanner. The bands intensity was analysed using ImageJ and the inhibition activity of the tested compounds was calculated.
Compound inhibitors for ALCAT1 enzyme were analyzed by an in vitro cell-based assay as detailed above.
Target sequence in this assay (Q6UWP7 whole entry, species assumed): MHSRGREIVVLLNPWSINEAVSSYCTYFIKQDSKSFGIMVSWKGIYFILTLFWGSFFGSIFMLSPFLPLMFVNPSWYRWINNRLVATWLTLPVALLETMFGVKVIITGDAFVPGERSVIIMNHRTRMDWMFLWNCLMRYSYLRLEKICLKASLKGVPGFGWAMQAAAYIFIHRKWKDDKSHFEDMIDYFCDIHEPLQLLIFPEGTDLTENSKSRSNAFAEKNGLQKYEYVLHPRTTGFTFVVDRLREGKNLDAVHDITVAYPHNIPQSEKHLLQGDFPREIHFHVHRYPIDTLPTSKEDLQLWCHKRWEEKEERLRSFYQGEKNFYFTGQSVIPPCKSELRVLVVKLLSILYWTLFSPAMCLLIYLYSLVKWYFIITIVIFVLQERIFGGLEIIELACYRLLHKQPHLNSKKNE

ALCAT1 [2] = biological target: T1, ALCAT1; assay: In vitro acyltransferase assay for ALCAT1 inhibitors; format: biochemical; details: for inhibition at 1 µM / % inh @ 1 μM: 1 μM compound; for inhibition at 1 µM / inhibition at 10 µM / % inh @ 1 μM: in vitro enzymatic assay; for inhibition at 10 µM: 10 μM compound; for IC50: ALCAT1 enzyme activity
Procedure, shortened: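 Membrane fractions from Sf9 cells expressing human ALCAT1 incubated 30 min at room temperature with 100 µM MLCL or LPG and 25 µM [14C]acyl-CoA (or 100 µM NBD-CoA) in 50 mM Tris/HCl pH 7.0.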
Target sequence in this assay (Q6UWP7 whole entry): as the sequence (Q6UWP7 whole entry, species assumed) above

[3] = read-out: IC50 values (upper bounds)
[4] = triplicates, GraphPad, read-out: IC50

CCOc1ccc(Br)cc1C(=O)Nc1cccc(-c2nnc(-c3ccco3)o2)c1 [Compound 118, 5-Bromo-2-ethoxy-N-(3-(5-(furan-2-yl)-1,3,4-oxadiazol-2-yl)phenyl)benzamide]
inhibition at 3 µM (ALCAT1 [1]): 9% | inhibition at 1 µM (ALCAT1 [2]): 95% | inhibition at 10 µM (ALCAT1 [2]): 100% | IC50 (ALCAT1 [2]; [3]): < 0.1 µM | IC50 (ALCAT1 [2]; [4]): 0.031 µM

COc1c(Br)cc(Br)cc1C(=O)Nc1cccc(-c2nnc(-c3ccco3)o2)c1 [Compound 168, 3,5-Dibromo-N-(3-(5-(furan-2-yl)-1,3,4-oxadiazol-2-yl)phenyl)-2-methoxybenzamide]
inhibition at 3 µM (ALCAT1 [1]): 27% | inhibition at 1 µM (ALCAT1 [2]): 100% | inhibition at 10 µM (ALCAT1 [2]): 100% | IC50 (ALCAT1 [2]; [4]): 0.048 µM

COc1ccc(Br)cc1C(=O)Nc1cc(-c2nnc(-c3ccco3)o2)ccc1F [Compound 183, 5-Bromo-N-(2-fluoro-5-(5-(furan-2-yl)-1,3,4-oxadiazol-2-yl)phenyl)-2-methoxybenzamide]
inhibition at 3 µM (ALCAT1 [1]): 62% | % inh @ 1 μM (ALCAT1 [2]): 100/100% | inhibition at 1 µM (ALCAT1 [2]): 100% | IC50 (ALCAT1 [2]; [3]): < 0.1 µM | IC50 (ALCAT1 [2]; [4]): 0.024 µM

COc1ccc(Cl)cc1C(=O)Nc1cc(-c2nnc(-c3ccco3)o2)ccc1F [Compound 184, 5-Chloro-N-(2-fluoro-5-(5-(furan-2-yl)-1,3,4-oxadiazol-2-yl)phenyl)-2-methoxybenzamide]
inhibition at 3 µM (ALCAT1 [1]): 57% | % inh @ 1 μM (ALCAT1 [2]): 100/100% | inhibition at 1 µM (ALCAT1 [2]): 100% | IC50 (ALCAT1 [2]; [3]): < 0.1 µM | IC50 (ALCAT1 [2]; [4]): 0.018 µM

CCCOc1ccc(C)cc1C(=O)Nc1cc(-c2nnc(-c3ccco3)o2)ccc1F [Compound 208, N-(2-Fluoro-5-(5-(furan-2-yl)-1,3,4-oxadiazol-2-yl)phenyl)-5-methyl-2-propoxybenzamide]
inhibition at 3 µM (ALCAT1 [1]): 36% | % inh @ 1 μM (ALCAT1 [2]): 98% | inhibition at 1 µM (ALCAT1 [2]): 97% | IC50 (ALCAT1 [2]; [4]): 0.076 µM

CCCOc1ccc(Cl)cc1C(=O)Nc1cc(-c2nnc(-c3ccco3)o2)ccc1F [Compound 209, 5-Chloro-N-(2-fluoro-5-(5-(furan-2-yl)-1,3,4-oxadiazol-2-yl)phenyl)-2-propoxybenzamide]
inhibition at 3 µM (ALCAT1 [1]): 37% | inhibition at 1 µM (ALCAT1 [2]): 100% | inhibition at 10 µM (ALCAT1 [2]): 100% | IC50 (ALCAT1 [2]; [3]): < 0.1 µM | IC50 (ALCAT1 [2]; [4]): 0.025 µM

CCCOc1ccc(F)cc1C(=O)Nc1cc(-c2nnc(-c3ccco3)o2)ccc1F [Compound 210, 5-Fluoro-N-(2-fluoro-5-(5-(furan-2-yl)-1,3,4-oxadiazol-2-yl)phenyl)-2-propoxybenzamide]
inhibition at 3 µM (ALCAT1 [1]): 24% | inhibition at 1 µM (ALCAT1 [2]): 97% | inhibition at 10 µM (ALCAT1 [2]): 97% | IC50 (ALCAT1 [2]; [4]): 0.066 µM

CCOc1ccc(Cl)cc1C(=O)Nc1cc(-c2nnc(-c3ccco3)o2)ccc1F [Compound 216, 5-chloro-2-ethoxy-N-(2-fluoro-5-(5-(furan-2-yl)-1,3,4-oxadiazol-2-yl)phenyl)benzamide]
inhibition at 3 µM (ALCAT1 [1]): 45% | % inh @ 1 μM (ALCAT1 [2]): 100/100% | inhibition at 1 µM (ALCAT1 [2]): 100% | IC50 (ALCAT1 [2]; [3]): < 0.1 µM | IC50 (ALCAT1 [2]; [4]): 0.019 µM

CCOc1ccc(CC)cc1C(=O)Nc1cccc(-c2nnc(-c3ccco3)o2)c1 [Compound 219, 2-Ethoxy-5-ethyl-N-(3-(5-(furan-2-yl)-1,3,4-oxadiazol-2-yl)phenyl)benzamide]
inhibition at 3 µM (ALCAT1 [1]): 22% | % inh @ 1 μM (ALCAT1 [2]): 98% | inhibition at 1 µM (ALCAT1 [2]): 99% | IC50 (ALCAT1 [2]; [3]): < 0.1 µM | IC50 (ALCAT1 [2]; [4]): 0.034 µM

CCOc1ccc(C)cc1C(=O)Nc1cc(-c2nnc(-c3ccco3)o2)ccc1F [Compound 221, 2-Ethoxy-N-(2-fluoro-5-(5-(furan-2-yl)-1,3,4-oxadiazol-2-yl)phenyl)-5-methylbenzamide]
inhibition at 3 µM (ALCAT1 [1]): 38% | % inh @ 1 μM (ALCAT1 [2]): 100/100% | inhibition at 1 µM (ALCAT1 [2]): 100% | IC50 (ALCAT1 [2]; [3]): < 0.1 µM | IC50 (ALCAT1 [2]; [4]): 0.031 µM

CCOc1ccc(CC)cc1C(=O)Nc1cc(-c2nnc(-c3ccco3)o2)ccc1F [Compound 222, 2-Ethoxy-5-ethyl-N-(2-fluoro-5-(5-(furan-2-yl)-1,3,4-oxadiazol-2-yl)phenyl)benzamide]
inhibition at 3 µM (ALCAT1 [1]): 85% | % inh @ 1 μM (ALCAT1 [2]): 97% | inhibition at 1 µM (ALCAT1 [2]): 100% | IC50 (ALCAT1 [2]; [3]): < 0.035 µM | IC50 (ALCAT1 [2]; [4]): 0.008 µM

COc1ccc(OC(F)(F)F)cc1C(=O)Nc1cccc(-c2nnc(-c3ccco3)o2)c1 [Compound 279, N-(3-(5-(Furan-2-yl)-1,3,4-oxadiazol-2-yl)phenyl)-2-methoxy-5-(trifluoromethoxy)benzamide]
inhibition at 3 µM (ALCAT1 [1]): 7% | inhibition at 1 µM (ALCAT1 [2]): 97% | IC50 (ALCAT1 [2]; [4]): 0.06 µM

CCCc1ccc(OC)c(C(=O)Nc2cc(-c3nnc(-c4ccco4)o3)ccc2F)c1 [Compound 281, N-(2-Fluoro-5-(5-(furan-2-yl)-1,3,4-oxadiazol-2-yl)phenyl)-2-methoxy-5-propylbenzamide]
inhibition at 3 µM (ALCAT1 [1]): 65% | % inh @ 1 μM (ALCAT1 [2]): 97% | inhibition at 1 µM (ALCAT1 [2]): 100% | IC50 (ALCAT1 [2]; [3]): < 0.1 µM | IC50 (ALCAT1 [2]; [4]): 0.024 µM

COc1ccc(C)cc1C(=O)Nc1cc(-c2nnc(-c3ccco3)o2)ccc1F [Compound 300, N-(2-Fluoro-5-(5-(furan-2-yl)-1,3,4-oxadiazol-2-yl)phenyl)-2-methoxy-5-methylbenzamide]
inhibition at 3 µM (ALCAT1 [1]): 31% | inhibition at 1 µM (ALCAT1 [2]): 96% | IC50 (ALCAT1 [2]; [3]): < 0.1 µM | IC50 (ALCAT1 [2]; [4]): 0.03 µM

O=C(Nc1cc(-c2nnc(-c3ccco3)o2)ccc1F)c1ccccc1OC(F)F [Compound 302, 2-(Difluoromethoxy)-N-(2-fluoro-5-(5-(furan-2-yl)-1,3,4-oxadiazol-2-yl)phenyl)benzamide]
inhibition at 3 µM (ALCAT1 [1]): 20% | inhibition at 1 µM (ALCAT1 [2]): 97% | IC50 (ALCAT1 [2]; [4]): 0.036 µM

O=C(Nc1cc(-c2nnc(-c3ccco3)o2)ccc1F)c1cc(Cl)ccc1OC(F)(F)F [Compound 304, 5-Chloro-N-(2-fluoro-5-(5-(furan-2-yl)-1,3,4-oxadiazol-2-yl)phenyl)-2-(trifluoromethoxy)benzamide]
inhibition at 3 µM (ALCAT1 [1]): 31% | % inh @ 1 μM (ALCAT1 [2]): 96% | inhibition at 1 µM (ALCAT1 [2]): 98% | IC50 (ALCAT1 [2]; [3]): < 0.1 µM | IC50 (ALCAT1 [2]; [4]): 0.02 µM

O=C(Nc1cc(-c2nnc(-c3ccco3)o2)ccc1F)c1cc(Cl)ccc1OC(F)F [Compound 305, 5-Chloro-2-(difluoromethoxy)-N-(2-fluoro-5-(5-(furan-2-yl)-1,3,4-oxadiazol-2-yl)phenyl)benzamide]
inhibition at 3 µM (ALCAT1 [1]): 34% | inhibition at 1 µM (ALCAT1 [2]): 100% | IC50 (ALCAT1 [2]; [3]): < 0.1 µM | IC50 (ALCAT1 [2]; [4]): 0.021 µM

O=C(Nc1cc(-c2nnc(-c3ccco3)o2)ccc1F)c1cc(Cl)ccc1OCF [Compound 306, 5-Chloro-N-(2-fluoro-5-(5-(furan-2-yl)-1,3,4-oxadiazol-2-yl)phenyl)-2-(fluoromethoxy)benzamide]
inhibition at 3 µM (ALCAT1 [1]): 30% | inhibition at 1 µM (ALCAT1 [2]): 100% | IC50 (ALCAT1 [2]; [3]): < 0.1 µM | IC50 (ALCAT1 [2]; [4]): 0.019 µM

Cc1c(C(=O)Nc2cc(-c3nnc(-c4ccco4)o3)ccc2F)cccc1[N+](=O)[O-] [Compound 332]
inhibition at 1 µM (ALCAT1 [2]): 30%

COc1ccc(C(=O)Nc2cc(-c3nnc(-c4ccco4)o3)ccc2F)cc1[N+](=O)[O-] [Compound 333]
inhibition at 1 µM (ALCAT1 [2]): 18%

Cc1ccc(C(=O)Nc2cc(-c3nnc(-c4ccco4)o3)ccc2F)cc1[N+](=O)[O-] [Compound 334]
inhibition at 1 µM (ALCAT1 [2]): 35%

O=C(Nc1cccc(-c2nnc(-c3ccco3)o2)c1)c1cc([N+](=O)[O-])ccc1F [Compound 336]
inhibition at 1 µM (ALCAT1 [2]): 66%

O=C(Nc1cccc(-c2nnc(-c3ccco3)o2)c1)c1cc([N+](=O)[O-])ccc1Cl [Compound 337]
inhibition at 1 µM (ALCAT1 [2]): 66% | IC50 (ALCAT1 [2]; [4]): 0.76 µM

O=C(Nc1cccc(-c2nnc(-c3ccco3)o2)c1)c1cc(F)cc([N+](=O)[O-])c1 [Compound 338]
inhibition at 1 µM (ALCAT1 [2]): 65%

O=C(Nc1cccc(-c2nnc(-c3ccco3)o2)c1)c1cccc([N+](=O)[O-])c1F [Compound 340]
inhibition at 1 µM (ALCAT1 [2]): 72%

COc1ccc([N+](=O)[O-])cc1C(=O)Nc1cccc(-c2nnc(-c3ccco3)o2)c1 [Compound 341]
inhibition at 1 µM (ALCAT1 [2]): 73% | IC50 (ALCAT1 [2]; [4]): 0.5 µM

COc1cc(C(=O)Nc2cccc(-c3nnc(-c4ccco4)o3)c2)cc([N+](=O)[O-])c1 [Compound 342]
inhibition at 1 µM (ALCAT1 [2]): 41%

O=C(Nc1cccc(-c2nnc(-c3ccco3)o2)c1)c1c(F)ccc([N+](=O)[O-])c1F [Compound 344]
inhibition at 1 µM (ALCAT1 [2]): 33%

O=C(Nc1cccc(-c2nnc(-c3ccco3)o2)c1)c1cncc([N+](=O)[O-])c1 [Compound 345]
inhibition at 1 µM (ALCAT1 [2]): 24%

O=C(Nc1cc(-c2nnc(-c3ccco3)o2)ccc1F)c1cc(Cl)ccc1Cl [Compound 347]
inhibition at 1 µM (ALCAT1 [2]): 94%

COc1ccc(Cl)cc1C(=O)Nc1cc(-c2nnc(-c3cnco3)o2)ccc1F [Compound 364]
IC50 (ALCAT1 [2]; [4]): 0.12 µM

CC(C)Oc1ccc(Br)cc1C(=O)Nc1cccc(-c2nnc(-c3ccco3)o2)c1 [Compound 477]
inhibition at 1 µM (ALCAT1 [2]): 63% | inhibition at 10 µM (ALCAT1 [2]): 68%

CC(C)Oc1ccc(Cl)cc1C(=O)Nc1cccc(-c2nnc(-c3ccco3)o2)c1 [Compound 478]
inhibition at 1 µM (ALCAT1 [2]): 57% | inhibition at 10 µM (ALCAT1 [2]): 62%

COc1ccc(Cl)cc1NC(=O)c1cc(-c2nnc(-c3ccco3)o2)ccc1F [Compound 480, N-(5-chloro-2-methoxyphenyl)-2-fluoro-5-(5-(furan-2-yl)-1,3,4-oxadiazol-2-yl)benzamide]
inhibition at 1 µM (ALCAT1 [2]): 96%
